Laboratory results reported in US12716904B2, “Compositions and methods for the detection of tuberculosis” (Washington University, priority 2021, dated 2026).

How the values were obtained:
Mtb isocitrate lyase(s) = settings: Mtb enzyme, methylcitrate cycle; cited from earlier work
[1] = system: host and Mtb methylmalonyl-CoA mutase; settings: host and Mtb enzyme; cited from earlier work
[2] = system: M. tuberculosis (H37Rv strain); test: Mtb growth in minimal media with a defined sole carbon source; settings: 100 μg/mL
Helicobacter pylori = settings: recent work; cited from earlier work
[3] = system: M. tuberculosis (H37Rv strain); test: Direct effect of cholestenone on Mtb growth in broth culture (absorbance, CFU); settings: bacilli growing in broth culture

C=C(CC(=O)O)C(=O)O [itaconate, itaconic acid]
inhibition of isocitrate lyase(s) (Mtb isocitrate lyase(s)): inhibits | inhibition of methylmalonyl-CoA mutase [1]: inhibits

C[C@H](CCCC(C)(C)O)[C@H]1CC[C@H]2[C@@H]3CC=C4C[C@@H](O)CC[C@]4(C)[C@H]3CC[C@]12C [25-HC, 25-hydroxycholesterol]
growth of Mtb with the substance as sole carbon source [2]: grew

CC(C)CCC[C@@H](C)[C@H]1CC[C@H]2[C@@H]3CC=C4C[C@@H](O)CC[C@]4(C)[C@H]3CC[C@]12C [cholesterol]
growth of Mtb with the substance as sole carbon source [2]: grew

CC(C)CCC[C@@H](C)[C@H]1CC[C@H]2[C@@H]3CCC4=CC(=O)CC[C@]4(C)[C@H]3CC[C@]12C [cholestenone, 4-cholesten-3-one]
antimicrobial activity against Helicobacter pylori (Helicobacter pylori): has antimicrobial activity | direct antimicrobial activity (toxicity) against Mtb [3]: not directly toxic to Mtb
